According to PubChem BioAssay AID504824 (The Scripps Research Institute Molecular Screening Center, 2011):
Active and inactive are the calls of the source.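 Rule for the calls: active = compound reaching half of full procaspase-3 activation at 10 µM or lower; inactive = the rest.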

These compounds were tested against Caspase-3 (Homo sapiens) (UniProt P42574) (assay: procaspase-3 activation potency of dual candidates, late-stage follow-up, counter-screen for dual procaspase-3/7 activator project, biochemical, absorbance, PC-3 D3A mutant, powder samples (AID 504824)). Details: recombinant PC-3 D3A, Ac-DEVD-pNA absorbance 405 nm.
Caspase-3 (Homo sapiens), sequence (P42574 whole entry D9A/D28A/D175A): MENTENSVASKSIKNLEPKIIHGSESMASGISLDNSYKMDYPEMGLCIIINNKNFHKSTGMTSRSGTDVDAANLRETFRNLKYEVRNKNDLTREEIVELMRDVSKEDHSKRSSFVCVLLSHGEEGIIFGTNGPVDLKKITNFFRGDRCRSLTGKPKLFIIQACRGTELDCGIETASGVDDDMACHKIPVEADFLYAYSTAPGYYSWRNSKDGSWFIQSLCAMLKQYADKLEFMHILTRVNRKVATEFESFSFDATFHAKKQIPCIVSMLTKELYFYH

Row | Structure (SMILES) | EC50
1 | O=C(Nc1ccc(Cc2ccncc2)cc1)C1CCC(N2C(=O)C3C4C=CC(C5CC45)C3C2=O)CC1 (stereo not given) | > 85.3 µM (inactive)
2 | O=C(C1=NN(c2ccccc2)C2C(=O)N(c3ccccc3)C(=O)C12)c1ccccc1 (stereo not given) | > 85.3 µM (inactive)
3 | Cc1[nH]nc2c1C(c1c[nH]c3ccccc13)C(C#N)=C(N)O2 (stereo not given) | 3.62 µM

The next lines start with the values.

Row | EC50 | Structure (SMILES)
4 | > 85.3 µM (inactive) | COC(=O)C1=NN(c2ccc(Cl)cc2)C2C(=O)N(c3ccccc3OC)C(=O)C12 (stereo not given)
5 | > 85.3 µM (inactive) | COc1ccccc1N1C(=O)C2C(C(=O)c3ccccc3)=NN(c3ccccc3)C2C1=O (stereo not given)
